Key:
[1] = Dynamic PET study of Compound 9 over 3 hours; format: in vivo, mouse; settings: dynamic study over 3 hours
[2] = Stability of Compound 9 formulated for injection at room temperature; format: physicochemical
Protocol: Radiolabeling chemistry was performed using automated synthesis of the following steps: (1) azeotropic drying of [^18F]-fluoride; (2) [^18F]-fluorination; (3) Boc deprotection; and (4) HPLC purification, followed by solid-phase formulation of the final product. The synthesis module was operated in the following sequences with numerical references to FIG. 1. Automated syntheses were performed on a Synthra (Hamburg, Germany) model RN Plus automated synthesizer module. Boc-deprotection was conducted with 0.4 mmol aqueous HCl at 95° C. added directly to the labeling reaction mixture without any prior purification. The two-step synthesis can be finished in approximately 80 min with the total radiochemical yield of 47% after decay correction. • 1. [^18F]-Fluoride, received from PETNET (Waltham, Mass.), was produced by the ^18O(p,n)^18F nuclear reaction and delivered to the reagent vial A (A) of the radiosynthesis module via syringe after mixing with tetrabutylammonium bicarbonate ([…], 75 mM in H2O, 250 μL) and acetonitrile (MeCN, 300 μL). • 2. Automated synthesis began with the addition the [^18F]-fluoride/TBAB mixture (A) and MeCN (B) to the reaction vessel 1 (RV1). • 3. […] The eluent was monitored by UV (λ=254 nm) and radiochemical detectors connected in series. • 8. […]

MPO = biological target: T1, MPO (Homo sapiens, UniProt P05164); test: MPO-PET matrigel implantation imaging in mice; format: in vivo, mouse
T1 sequence (P05164 49-745): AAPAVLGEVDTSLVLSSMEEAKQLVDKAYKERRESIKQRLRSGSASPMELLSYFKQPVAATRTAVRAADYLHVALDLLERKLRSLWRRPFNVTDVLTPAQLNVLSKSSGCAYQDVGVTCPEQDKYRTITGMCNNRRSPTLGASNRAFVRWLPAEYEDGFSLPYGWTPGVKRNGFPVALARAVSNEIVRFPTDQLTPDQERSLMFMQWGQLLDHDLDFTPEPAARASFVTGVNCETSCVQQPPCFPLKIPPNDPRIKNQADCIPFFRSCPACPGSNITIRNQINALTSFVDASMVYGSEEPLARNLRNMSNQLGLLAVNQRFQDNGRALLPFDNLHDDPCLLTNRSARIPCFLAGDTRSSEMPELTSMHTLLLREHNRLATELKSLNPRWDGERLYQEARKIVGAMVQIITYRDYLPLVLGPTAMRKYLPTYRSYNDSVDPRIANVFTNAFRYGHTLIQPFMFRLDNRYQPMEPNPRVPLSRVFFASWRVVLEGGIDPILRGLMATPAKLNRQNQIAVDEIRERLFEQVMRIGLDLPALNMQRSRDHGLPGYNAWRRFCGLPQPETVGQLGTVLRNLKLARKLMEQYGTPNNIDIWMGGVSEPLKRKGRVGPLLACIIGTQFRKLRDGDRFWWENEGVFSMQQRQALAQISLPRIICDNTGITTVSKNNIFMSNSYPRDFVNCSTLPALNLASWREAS
Protocol: 300 μL of 1:1 mixture of matrigel and minimal essential medium (MEM) containing GOX and/or different concentrations of MPO (0, 15 μL, 30 μL) was injected subcutaneously into the ventral aspect of the thighs of the mouse. After 30 min, 300-600 μCi of MPO Compound 9 was injected intravenously. After 2 h, the mice were scanned using PET scanning.
To validate the efficacy of the MPO PET agents for in vivo applications, matrigel implantation experiments were performed by embedding MPO in matrigel along with glucose oxidase (GOX) as H2O2 donor. Matrigel is a gelatinous protein mixture that is liquid at 0° C. but forms a gel at body temperature while remaining diffusible to molecules from the bloodstream when injected into living animals (see e.g., Chen et al, Radiology, 2006, 240(2):473-481). The MPO/matrigel mixtures were injected subcutaneously to the thighs of the mice followed by injection of the MPO PET tracers 30 min later. […] The signal of MPO side was around 1.7 fold higher compared to that of control side.
To verify the specificity of Compound 9 over MPO, different concentrations of MPO (0, 15 μL, 30 μL) were embedded in matrigel for the implantation experiments.

In the case of `O=C(Cc1c[nH]c2ccc(O)cc12)NC(Cc1c[nH]c2ccc(O)cc12)C(=O)NCCOCCOCC[18F]` (stereo not drawn) [Compound 9], the “Blood-brain barrier crossing (brain data)” value [1] is reported as “can cross the blood-brain barrier”, the “Time stable on storage” value ([2]; 0.5% (w/v) aqueous sodium-ascorbate in saline) is reported as “at least 4 h” and the Stability on storage ([2]; 1×PBS for injection) is reported as “degraded over time”. The “PET signal versus MPO concentration” value (MPO; MPO 0, 15 μL, 30 μL embedded in matrigel) was “linear increase in signal”, the “Background, organ uptake and defluorination” value (MPO; matrigel PET imaging in mice) was “high ratio of signal to background, lower liver and heart uptake and no observed defluorination” and the “PET signal of MPO side compared to control side” value (MPO; matrigel with GOX+MPO vs GOX only in mouse thighs, scan 2 h after i.v. tracer) was “around 1.7 fold”.
